Earlier results, collected in PMC3237771 (Biomacromolecules, 2011).

Settings: aqueous buffer; no reference given

Half-life in aqueous environments: < 10 h
SMILES: N=c1c[n+](N2CCOCC2)[n-]o1 [SIN-1, 3-morpholinosydnonimine]
